Experiments:
Test in all cases: radiometric filter-binding kinase assay, Kinase HotSpot
Details in all cases: compound 0.5 µM; ATP 10 µM
[1] = molecular target: EPHA6 (human) (UniProt Q9UF33)
[2] = molecular target: TGFBR2 (human) (UniProt P37173)
[3] = molecular target: ULK1 (human) (UniProt O75385)
[4] = molecular target: STK10 (human) (UniProt O94804)
[5] = molecular target: STK33 (human) (UniProt Q9BYT3)
[6] = molecular target: MAP3K2 (human) (UniProt Q9Y2U5)
[7] = molecular target: PDPK1 (human) (UniProt O15530)
[8] = molecular target: CSNK1A1 (human) (UniProt P48729)
[9] = molecular target: ULK3 (human) (UniProt Q6PHR2)
[10] = molecular target: PAK6 (human) (UniProt Q9NQU5)
[11] = molecular target: MYO3B (human) (UniProt Q8WXR4)
[12] = molecular target: FER (human) (UniProt P16591)
[13] = molecular target: YES1 (human) (UniProt P07947)
[14] = molecular target: MST1R (human) (UniProt Q04912)
[15] = molecular target: AXL (human) (UniProt P30530)
[16] = molecular target: MAPK3 (human) (UniProt P27361)
[17] = molecular target: PRKACG (human) (UniProt P22612)
[18] = molecular target: TBK1 (human) (UniProt Q9UHD2)
[19] = molecular target: LRRK2 (human) (UniProt Q5S007)
[20] = molecular target: SRPK1 (human) (UniProt Q96SB4)
[21] = molecular target: EGFR (human) (UniProt P00533)
[22] = molecular target: CDK2 CCNE1 (human) (UniProt P24941+P24864)
[23] = molecular target: MET (human) (UniProt P08581)
[24] = molecular target: NEK11 (human) (UniProt Q8NG66)
[25] = molecular target: MARK3 (human) (UniProt P27448)
[26] = molecular target: PRKCZ (human) (UniProt Q05513)
[27] = molecular target: MAPKAPK5 (human) (UniProt Q8IW41)
[28] = molecular target: ROCK1 (human) (UniProt Q13464)
[29] = molecular target: CLK2 (human) (UniProt P49760)
[30] = molecular target: RET (human) (UniProt P07949)
[31] = molecular target: PHKG1 (human) (UniProt Q16816)
[32] = molecular target: IKBKE (human) (UniProt Q14164)
[33] = molecular target: TLK2 (human) (UniProt Q86UE8)
[34] = molecular target: STK4 (human) (UniProt Q13043)
[35] = molecular target: AKT2 (human) (UniProt P31751)
[36] = molecular target: STK38 (human) (UniProt Q15208)
[37] = molecular target: LCK (human) (UniProt P06239)
[38] = molecular target: MAP4K5 (human) (UniProt Q9Y4K4)
[39] = molecular target: SIK2 (human) (UniProt Q9H0K1)
[40] = molecular target: CDK6 CCND1 (human) (UniProt Q00534+P24385)
[41] = molecular target: PAK7 (human) (UniProt Q9P286)
[42] = molecular target: BRAF (human) (UniProt P15056)

Chain of AXL (human) (P30530 whole entry, looked up): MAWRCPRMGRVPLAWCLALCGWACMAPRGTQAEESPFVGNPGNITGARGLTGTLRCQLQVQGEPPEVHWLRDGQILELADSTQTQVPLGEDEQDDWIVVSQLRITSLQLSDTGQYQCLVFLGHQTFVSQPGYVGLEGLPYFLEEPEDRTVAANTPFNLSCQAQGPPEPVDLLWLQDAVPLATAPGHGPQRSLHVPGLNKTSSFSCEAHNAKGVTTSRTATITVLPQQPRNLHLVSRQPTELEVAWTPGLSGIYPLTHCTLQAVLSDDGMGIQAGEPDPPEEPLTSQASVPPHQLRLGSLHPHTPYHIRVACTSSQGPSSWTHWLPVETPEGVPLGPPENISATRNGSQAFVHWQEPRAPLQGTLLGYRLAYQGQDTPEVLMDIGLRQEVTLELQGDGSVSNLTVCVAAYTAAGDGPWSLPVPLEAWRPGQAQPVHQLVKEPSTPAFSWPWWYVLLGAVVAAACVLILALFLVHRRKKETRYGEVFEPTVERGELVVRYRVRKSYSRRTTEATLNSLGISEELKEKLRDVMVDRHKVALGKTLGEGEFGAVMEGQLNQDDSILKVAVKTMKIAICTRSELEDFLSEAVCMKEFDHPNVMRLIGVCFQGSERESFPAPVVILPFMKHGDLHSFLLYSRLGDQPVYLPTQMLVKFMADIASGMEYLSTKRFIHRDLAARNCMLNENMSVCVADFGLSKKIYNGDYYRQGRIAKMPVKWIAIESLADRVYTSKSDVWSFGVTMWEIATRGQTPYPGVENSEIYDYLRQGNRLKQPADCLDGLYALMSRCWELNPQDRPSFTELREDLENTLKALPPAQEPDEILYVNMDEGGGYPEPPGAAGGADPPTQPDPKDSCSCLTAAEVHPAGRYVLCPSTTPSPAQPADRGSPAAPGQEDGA
Chain of MYO3B (human) (Q8WXR4 whole entry, looked up): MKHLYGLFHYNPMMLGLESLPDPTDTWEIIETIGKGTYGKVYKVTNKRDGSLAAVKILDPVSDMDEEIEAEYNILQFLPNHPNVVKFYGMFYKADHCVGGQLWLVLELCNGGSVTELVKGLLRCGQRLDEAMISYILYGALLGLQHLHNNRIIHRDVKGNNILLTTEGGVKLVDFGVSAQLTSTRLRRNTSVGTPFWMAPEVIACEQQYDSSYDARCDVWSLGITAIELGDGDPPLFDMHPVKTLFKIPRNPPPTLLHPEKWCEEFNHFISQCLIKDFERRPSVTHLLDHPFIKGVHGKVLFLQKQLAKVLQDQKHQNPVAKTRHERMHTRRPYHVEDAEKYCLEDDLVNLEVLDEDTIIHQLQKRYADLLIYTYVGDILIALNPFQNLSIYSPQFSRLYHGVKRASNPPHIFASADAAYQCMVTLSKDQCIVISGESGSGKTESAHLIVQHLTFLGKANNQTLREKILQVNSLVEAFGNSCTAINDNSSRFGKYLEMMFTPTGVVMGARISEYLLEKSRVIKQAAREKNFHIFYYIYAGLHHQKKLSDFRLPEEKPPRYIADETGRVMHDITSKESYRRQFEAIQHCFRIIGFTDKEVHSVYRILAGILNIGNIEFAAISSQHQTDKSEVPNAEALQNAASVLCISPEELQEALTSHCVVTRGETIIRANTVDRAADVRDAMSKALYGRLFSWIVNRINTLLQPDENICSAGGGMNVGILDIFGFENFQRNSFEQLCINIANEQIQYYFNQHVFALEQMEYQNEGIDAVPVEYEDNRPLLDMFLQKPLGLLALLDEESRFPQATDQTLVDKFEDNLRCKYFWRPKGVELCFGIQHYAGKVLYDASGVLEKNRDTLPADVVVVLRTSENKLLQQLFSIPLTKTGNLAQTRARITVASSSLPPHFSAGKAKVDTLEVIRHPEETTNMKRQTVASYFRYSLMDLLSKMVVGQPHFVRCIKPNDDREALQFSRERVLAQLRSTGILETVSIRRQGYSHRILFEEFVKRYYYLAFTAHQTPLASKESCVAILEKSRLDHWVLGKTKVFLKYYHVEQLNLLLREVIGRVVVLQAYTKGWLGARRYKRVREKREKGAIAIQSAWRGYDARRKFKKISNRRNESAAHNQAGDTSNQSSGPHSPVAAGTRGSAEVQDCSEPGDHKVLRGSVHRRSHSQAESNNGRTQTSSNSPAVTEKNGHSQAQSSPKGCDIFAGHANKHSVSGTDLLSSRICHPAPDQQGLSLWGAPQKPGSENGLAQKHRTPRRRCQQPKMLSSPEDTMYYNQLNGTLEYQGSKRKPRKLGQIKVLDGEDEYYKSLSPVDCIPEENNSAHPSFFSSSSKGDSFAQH
Chain of PDPK1 (human) (O15530 whole entry, looked up): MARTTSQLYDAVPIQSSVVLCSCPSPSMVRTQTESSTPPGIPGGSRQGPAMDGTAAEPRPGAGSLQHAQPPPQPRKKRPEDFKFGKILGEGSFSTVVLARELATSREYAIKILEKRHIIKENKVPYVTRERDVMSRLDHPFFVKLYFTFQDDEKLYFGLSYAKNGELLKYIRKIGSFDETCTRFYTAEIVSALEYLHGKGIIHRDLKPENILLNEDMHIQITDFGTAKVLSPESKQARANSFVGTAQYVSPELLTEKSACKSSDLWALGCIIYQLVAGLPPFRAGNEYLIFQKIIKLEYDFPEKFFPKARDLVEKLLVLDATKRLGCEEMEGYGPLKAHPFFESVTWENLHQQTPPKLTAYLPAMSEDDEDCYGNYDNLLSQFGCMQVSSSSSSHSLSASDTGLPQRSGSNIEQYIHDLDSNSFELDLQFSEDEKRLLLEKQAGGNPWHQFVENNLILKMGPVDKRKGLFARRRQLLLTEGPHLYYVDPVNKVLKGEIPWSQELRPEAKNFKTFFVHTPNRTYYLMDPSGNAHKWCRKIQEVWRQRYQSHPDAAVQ
Chain of AKT2 (human) (P31751 whole entry, looked up): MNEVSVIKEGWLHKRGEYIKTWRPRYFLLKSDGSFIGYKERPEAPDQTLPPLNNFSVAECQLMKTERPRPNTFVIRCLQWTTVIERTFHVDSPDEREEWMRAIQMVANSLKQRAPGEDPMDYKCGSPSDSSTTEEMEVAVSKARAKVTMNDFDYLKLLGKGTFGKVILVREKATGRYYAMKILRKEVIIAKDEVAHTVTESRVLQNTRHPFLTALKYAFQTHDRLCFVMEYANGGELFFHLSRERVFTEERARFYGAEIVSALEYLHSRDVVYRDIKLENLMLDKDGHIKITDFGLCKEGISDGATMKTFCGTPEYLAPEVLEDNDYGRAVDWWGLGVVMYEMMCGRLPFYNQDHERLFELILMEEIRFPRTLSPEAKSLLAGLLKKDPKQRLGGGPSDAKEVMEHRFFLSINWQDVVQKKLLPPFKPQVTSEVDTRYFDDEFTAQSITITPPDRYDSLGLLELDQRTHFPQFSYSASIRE
Chain of MAPK3 (human) (P27361 whole entry, looked up): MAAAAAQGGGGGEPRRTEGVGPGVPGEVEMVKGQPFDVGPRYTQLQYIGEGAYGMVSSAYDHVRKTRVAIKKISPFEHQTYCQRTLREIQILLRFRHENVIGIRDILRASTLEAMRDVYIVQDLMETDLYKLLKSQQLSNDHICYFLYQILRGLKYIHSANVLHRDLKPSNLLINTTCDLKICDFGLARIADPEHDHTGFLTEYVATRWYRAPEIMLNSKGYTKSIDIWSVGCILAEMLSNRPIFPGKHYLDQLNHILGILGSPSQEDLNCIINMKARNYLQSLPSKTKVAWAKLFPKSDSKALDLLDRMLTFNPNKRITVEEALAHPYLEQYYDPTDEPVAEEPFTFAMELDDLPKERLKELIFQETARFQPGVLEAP
Chain of CSNK1A1 (human) (P48729 whole entry, looked up): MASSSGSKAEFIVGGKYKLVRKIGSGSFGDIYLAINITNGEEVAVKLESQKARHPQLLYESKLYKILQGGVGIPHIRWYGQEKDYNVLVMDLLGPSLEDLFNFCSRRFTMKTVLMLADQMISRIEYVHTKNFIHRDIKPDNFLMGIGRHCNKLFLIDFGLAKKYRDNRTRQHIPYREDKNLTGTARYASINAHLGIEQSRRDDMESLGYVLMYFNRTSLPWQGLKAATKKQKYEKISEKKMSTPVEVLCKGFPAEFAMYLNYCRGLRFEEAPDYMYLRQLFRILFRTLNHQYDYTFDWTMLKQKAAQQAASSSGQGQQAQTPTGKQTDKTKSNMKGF
Chain of FER (human) (P16591 whole entry, looked up): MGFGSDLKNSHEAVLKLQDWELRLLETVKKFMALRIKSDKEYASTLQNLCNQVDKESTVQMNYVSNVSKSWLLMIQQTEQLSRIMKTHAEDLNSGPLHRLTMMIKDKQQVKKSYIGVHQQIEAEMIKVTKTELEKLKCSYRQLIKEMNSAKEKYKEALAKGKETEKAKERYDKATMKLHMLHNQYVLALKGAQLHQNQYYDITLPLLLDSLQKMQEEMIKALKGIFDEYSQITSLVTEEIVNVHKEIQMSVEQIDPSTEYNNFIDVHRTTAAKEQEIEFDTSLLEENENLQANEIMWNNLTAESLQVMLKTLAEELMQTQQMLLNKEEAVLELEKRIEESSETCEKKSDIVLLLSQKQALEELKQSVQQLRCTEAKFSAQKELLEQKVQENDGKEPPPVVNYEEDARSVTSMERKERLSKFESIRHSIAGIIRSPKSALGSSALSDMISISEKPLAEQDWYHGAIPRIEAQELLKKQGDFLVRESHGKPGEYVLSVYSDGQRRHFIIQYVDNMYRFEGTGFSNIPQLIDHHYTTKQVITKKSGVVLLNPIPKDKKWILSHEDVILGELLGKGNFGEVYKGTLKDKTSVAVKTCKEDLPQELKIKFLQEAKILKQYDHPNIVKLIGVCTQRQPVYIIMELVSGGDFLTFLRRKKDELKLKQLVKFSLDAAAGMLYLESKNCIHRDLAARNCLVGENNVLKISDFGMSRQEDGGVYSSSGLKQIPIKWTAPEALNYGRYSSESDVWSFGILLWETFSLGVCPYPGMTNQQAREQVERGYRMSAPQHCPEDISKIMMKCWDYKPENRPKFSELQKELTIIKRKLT

Cn1cc(/C=C2\C(=O)Nc3ccc(S(N)(=O)=O)cc32)c2ccccc21
residual activity [1]: 30.2%
residual activity [2]: 101%
residual activity [3]: 27.5%
residual activity [4]: 17%
residual activity [5]: 46.3%
residual activity [6]: 92.1%
residual activity [7]: 95%
residual activity [8]: 105%
residual activity [9]: 15.8%
residual activity [10]: 90.1%
residual activity [11]: 74.6%
residual activity [12]: 20%
residual activity [13]: 24.2%
residual activity [14]: 100%
residual activity [15]: 49.2%
residual activity [16]: 109%
residual activity [17]: 101%
residual activity [18]: 21.6%
residual activity [19]: 9.76%
residual activity [20]: 69%
residual activity [21]: 77.5%
residual activity [22]: 77.9%
residual activity [23]: 84.2%
residual activity [24]: 96.1%
residual activity [25]: 57.2%
residual activity [26]: 105%
residual activity [27]: 88.3%
residual activity [28]: 63.8%
residual activity [29]: 38.1%
residual activity [30]: 1.93%
residual activity [31]: 20.6%
residual activity [32]: 21.9%
residual activity [33]: 63.2%
residual activity [34]: 10.7%
residual activity [35]: 88.6%
residual activity [36]: 53.1%
residual activity [37]: 57.6%
residual activity [38]: 13.4%
residual activity [39]: 81.4%
residual activity [40]: 82.4%
residual activity [41]: 75.3%

COc1cc2c(cc1OC)-c1[nH]nc(Nc3cccc(F)c3)c1C2
residual activity [1]: 82.7%
residual activity [2]: 100%
residual activity [3]: 103%
residual activity [4]: 89%
residual activity [5]: 99.5%
residual activity [6]: 84.5%
residual activity [7]: 95.9%
residual activity [9]: 96.5%
residual activity [10]: 84.8%
residual activity [11]: 107%
residual activity [12]: 94%
residual activity [13]: 61.3%
residual activity [14]: 99.1%
residual activity [15]: 96.1%
residual activity [16]: 93.7%
residual activity [17]: 102%
residual activity [18]: 101%
residual activity [19]: 82.3%
residual activity [20]: 101%
residual activity [22]: 88.6%
residual activity [23]: 97.8%
residual activity [24]: 98.9%
residual activity [25]: 69.9%
residual activity [42]: 93.8%
residual activity [26]: 99.7%
residual activity [27]: 82.3%
residual activity [28]: 87.5%
residual activity [29]: 84.3%
residual activity [30]: 83.6%
residual activity [31]: 89%
residual activity [32]: 93.3%
residual activity [33]: 103%
residual activity [34]: 91.5%
residual activity [35]: 95.3%
residual activity [36]: 113%
residual activity [38]: 89%
residual activity [39]: 38.6%
residual activity [40]: 92.9%
residual activity [41]: 93.2%

N#C/C(=C1/Nc2ccccc2S1)c1ccnc(NCCc2cccnc2)n1
residual activity [1]: 87.1%
residual activity [2]: 102%
residual activity [3]: 98.5%
residual activity [4]: 86.3%
residual activity [5]: 55.4%
residual activity [6]: 98.1%
residual activity [7]: 95.9%
residual activity [8]: 80%
residual activity [9]: 99.1%
residual activity [10]: 97.6%
residual activity [11]: 96.1%
residual activity [12]: 91%
residual activity [13]: 89.1%
residual activity [14]: 93.5%
residual activity [15]: 106%
residual activity [16]: 99.4%
residual activity [17]: 101%
residual activity [18]: 100%
residual activity [19]: 83.4%
residual activity [20]: 97%
residual activity [22]: 82.7%
residual activity [23]: 105%
residual activity [24]: 118%
residual activity [25]: 94.9%
residual activity [42]: 96.6%
residual activity [26]: 102%
residual activity [27]: 98.3%
residual activity [28]: 93.2%
residual activity [29]: 48.5%
residual activity [30]: 70.1%
residual activity [31]: 89%
residual activity [32]: 90.3%
residual activity [33]: 102%
residual activity [34]: 92.2%
residual activity [35]: 104%
residual activity [36]: 100%
residual activity [37]: 98.3%
residual activity [38]: 87.5%
residual activity [39]: 96.4%
residual activity [40]: 89.7%
residual activity [41]: 98.9%

O=C1NC(=O)c2cc(Nc3ccc(F)cc3)c(Nc3ccc(F)cc3)cc21
residual activity [1]: 66.8%
residual activity [2]: 85.2%
residual activity [3]: 102%
residual activity [4]: 79.2%
residual activity [5]: 99.3%
residual activity [6]: 94.8%
residual activity [7]: 102%
residual activity [8]: 88%
residual activity [9]: 96.3%
residual activity [10]: 106%
residual activity [11]: 98.2%
residual activity [12]: 96.4%
residual activity [13]: 86.6%
residual activity [14]: 100%
residual activity [15]: 104%
residual activity [16]: 86.1%
residual activity [17]: 101%
residual activity [18]: 101%
residual activity [19]: 99.8%
residual activity [20]: 102%
residual activity [22]: 94.3%
residual activity [23]: 96.7%
residual activity [24]: 103%
residual activity [25]: 90.8%
residual activity [42]: 94.2%
residual activity [26]: 100%
residual activity [27]: 93.4%
residual activity [28]: 96.7%
residual activity [29]: 88.1%
residual activity [30]: 104%
residual activity [31]: 94.8%
residual activity [32]: 100%
residual activity [33]: 93.5%
residual activity [34]: 101%
residual activity [35]: 95.1%
residual activity [36]: 85.5%
residual activity [37]: 98.4%
residual activity [38]: 89.5%
residual activity [39]: 103%
residual activity [40]: 99%
residual activity [41]: 96.4%

COc1cc2c(Nc3ccc(Br)cc3F)ncnc2cc1OCC1CCN(C)CC1
residual activity [1]: 3.27%
residual activity [2]: 102%
residual activity [3]: 95.7%
residual activity [4]: 21.3%
residual activity [5]: 85.1%
residual activity [6]: 108%
residual activity [7]: 91.3%
residual activity [8]: 102%
residual activity [9]: 105%
residual activity [10]: 105%
residual activity [11]: 84.2%
residual activity [12]: 95.8%
residual activity [13]: 11.3%
residual activity [14]: 93.6%
residual activity [15]: 55%
residual activity [16]: 102%
residual activity [17]: 106%
residual activity [18]: 99.9%
residual activity [19]: 113%
residual activity [20]: 97.9%
residual activity [22]: 101%
residual activity [24]: 103%
residual activity [25]: 106%
residual activity [42]: 94.8%
residual activity [26]: 97.8%
residual activity [27]: 94.7%
residual activity [28]: 99.4%
residual activity [29]: 89.7%
residual activity [31]: 55.5%
residual activity [32]: 85.8%
residual activity [33]: 79.7%
residual activity [34]: 103%
residual activity [35]: 110%
residual activity [36]: 100%
residual activity [38]: 37.1%
residual activity [39]: 17.6%
residual activity [40]: 98.7%
residual activity [41]: 93.5%
